Data set [1] in a line: Spacer leaving group cyclization rate (disappearance of compound in phosphate buffer). As to conditions: for half-life (compound disappearance, cyclization): 2.18 mM initial, 50 mM pH 7.4 phosphate buffer, 20° C.
For data set [2], the target named is T1, trypsin (Bos taurus, UniProt P00760).
T1 construct: trypsin from bovine pancreas; purchased Sigma-Aldrich T8003; host or cells: bovine pancreas (tissue-derived)
T1 sequence (P00760 24-246): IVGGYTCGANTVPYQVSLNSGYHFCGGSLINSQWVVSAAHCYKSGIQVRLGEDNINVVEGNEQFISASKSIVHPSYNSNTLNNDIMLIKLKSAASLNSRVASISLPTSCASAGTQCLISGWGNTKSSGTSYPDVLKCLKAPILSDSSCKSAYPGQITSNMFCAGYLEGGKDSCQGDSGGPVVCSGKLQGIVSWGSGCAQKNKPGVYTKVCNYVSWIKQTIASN
The data set is described as follows: In vitro trypsin-mediated prodrug cleavage. The class given is biochemical, bovine. As to conditions: bovine, trypsin from bovine pancreas; 0.761 mM prodrug, Tris pH 8, 37° C.; adjusted to 4815 BAEE U/mL trypsin. As for the experimental part: (§1) The reactions were conducted at 37° C. for 24 h.
(§2) Table 3 indicates the results of exposure of Compound KC-7 to trypsin. […] Table 3 also indicates the cyclization rates of the cyclizable spacer leaving group of Compound KC-23. The results are expressed as half-life of compound disappearance. Since Compound KC-23 is a diastereomer, two peaks (A and B) were analyzed; the peak area of peak B was greater than that of peak A.

For data set [3], the target named is T2, trypsin from bovine pancreas (Bos taurus, UniProt P00760).
T2 construct: trypsin from bovine pancreas; purchased Sigma-Aldrich T8003; host or cells: bovine pancreas (tissue-derived)
T2 sequence (P00760 24-246): T1 sequence (P00760 24-246)
The experiment in a line: In vitro trypsin-mediated prodrug cleavage. The class given is biochemical. As for the experimental part: as §1, §2

A short description of data set [4]: Pharmacokinetics following PO administration to dogs (oxycodone in plasma).
Data set [5] can be described thus: Oral administration of Compound KC-7 co-dosed with trypsin inhibitor Compound 109 to rats (oxycodone in plasma). The class given is in vivo, rat. Conditions: PO co-dosing, indicated by suppressed Cmax and/or delayed Tmax.

With “[(S)-1-(oxycodone-6-enol-carbonyl-methyl-amino)-1-carbonyl-sarcosine]ethylamine [KC-23, peak A]”, the “half-life (compound disappearance, cyclization)” value in data set [1] is reported as 7.22 ± 0.03 h.

The half-life is how long it takes for the measured level to halve. `COc1ccc2c3c1O[C@H]1C(OC(=O)N(C)[C@@H](CNC(=O)[C@H](CCCNC(=N)N)NC(=O)CNC(C)=O)C(=O)N(C)CC(=O)O)=CC[C@@]4(O)[C@@H](C2)N(C)CC[C@]314` [Compound KC-7, N-1-[(S)-2-(oxycodone-6-enol-carbonyl-methyl-amino)-2-carbonyl-sarcosine-ethylamine]-arginine-glycine-acetate]: the half-life at 0.761 mM in data set [2] was 0.196 ± 0.00031 h. In addition, the OC formation rate in data set [3] (0.761 mM prodrug, Tris pH 8, 37° C.) was found to be 0.339 ± 0.032 μmol/h/BAEE U. For the same compound, in data set [3] (in vitro), the cleavage by trypsin result was “can be cleaved by trypsin”. For the same compound, in data set [4] (dogs, PO), the “plasma PK profile of oxycodone release compared to OxyContin tablets and oxycodone” value was “resembles that of OxyContin® tablets more than that of oxycodone”; the “release of oxycodone into dog plasma compared to Compound KC-3” value was “significantly enhanced release of oxycodone into dog plasma (higher Cmax and AUC) as well as a more rapid Tmax”. Also, in data set [1] (shown by the cyclization rate of Compound KC-23), the “cyclization of the spacer leaving group” value is given as “can cyclize”.

Turning to `N=C(N)c1ccc2cc(OC(=O)c3ccc(N=C(N)N)cc3)ccc2c1` [Compound 109, 6-carbamimidoylnaphthalen-2-yl 4-(diaminomethyleneamino) benzoate], the “effect of trypsin inhibitor on oxycodone release from Compound KC-7” value in data set [5] was “attenuate Compound KC-7's ability to release oxycodone in rats in a dose-dependent manner”.

As to “[(S)-1-(oxycodone-6-enol-carbonyl-methyl-amino)-1-carbonyl-sarcosine]ethylamine [KC-23, peak B]”, the “half-life (compound disappearance, cyclization)” value in data set [1] is given as 5.80 ± 0.08 h.

For “N-1-[2-(oxycodone-6-enol-carbonyl-methyl-amino)-ethylamine]-arginine-malonic acid [Compound KC-3]”, the “AUC ± sd” value in data set [4] (oxycodone in dog plasma, AUC 0 to 24 h, PO […] (KC-7 4.88, KC-3 4.15, oxycodone 2 mg/kg), OxyContin one 20 mg tablet) is 65.6 ± 22 ng·h/mL. Besides, in data set [4] (oxycodone in dog plasma, PO […] (KC-7 4.88, KC-3 4.15, oxycodone 2 mg/kg), OxyContin one 20 mg tablet), the “OC Cmax ± sd” value stood at 10.2 ± 3.3 ng/mL.

These data come from patent US8497237B2 (Signature Therapeutics, Inc., priority 2011, dated 2013).
